Target: MDM2 (Homo sapiens, UniProt Q00987)
Assay: MDM2 binding screen of Libraries 3 and 4: displacement of fluorescent probe F-M8 at 750 nM macrocycle
Settings: Panel b, Library 3: 63 scaffolds combinatorially acylated with 15 carboxylic acids at 30 picomole scale; displacement of fluorescent peptide probe; macrocycle 750 nM
In short: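 Cyclic peptide scaffolds were acylated in DMSO with carboxylic acids (20 equiv.), HBTU and DABCO for 6 h at room temperature. Reactions were quenched overnight in 100 mM Tris-Cl pH 7.4, 0.01% Tween20. The fluorescein conjugate was also competed with nutlin-3a.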

Sequence of MDM2 (Q00987 whole entry): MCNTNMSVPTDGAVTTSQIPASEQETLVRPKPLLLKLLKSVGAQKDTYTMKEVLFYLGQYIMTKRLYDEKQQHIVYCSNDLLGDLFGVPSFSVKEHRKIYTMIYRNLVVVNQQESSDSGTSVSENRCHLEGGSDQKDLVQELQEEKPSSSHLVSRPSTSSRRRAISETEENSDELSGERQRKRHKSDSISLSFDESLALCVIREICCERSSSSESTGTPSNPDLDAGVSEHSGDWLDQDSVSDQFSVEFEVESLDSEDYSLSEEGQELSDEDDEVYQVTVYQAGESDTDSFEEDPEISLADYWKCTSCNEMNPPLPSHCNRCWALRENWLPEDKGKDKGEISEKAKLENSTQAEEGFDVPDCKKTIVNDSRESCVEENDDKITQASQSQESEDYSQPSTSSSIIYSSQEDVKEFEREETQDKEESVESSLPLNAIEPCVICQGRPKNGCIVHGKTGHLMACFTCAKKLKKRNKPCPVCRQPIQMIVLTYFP

fraction of fluorescent probe displaced | Compound
0.008 | CC(Oc1cccc(Cl)c1)C(=O)NC[C@@H]1NC(=O)[C@H]2CCCN(C2)C(=O)CCSSCCNC(=O)[C@H](Cc2c[nH]c3cc(Cl)ccc23)NC1=O (stereo partly drawn) [X-Nip-Dap-Cl-Trp + Acid 113]
-0.012 | O=C(CCS(=O)(=O)c1ccccc1)NC[C@@H]1NC(=O)[C@H]2CCCN(C2)C(=O)CCSSCCNC(=O)[C@H](Cc2c[nH]c3cc(Cl)ccc23)NC1=O [X-Nip-Dap-Cl-Trp + Acid 114]
-0.172 | O=C(NC[C@@H]1NC(=O)[C@H]2CCCN(C2)C(=O)CCSSCCNC(=O)[C@@H](Cc2c[nH]c3ccccc23)NC1=O)c1ccc(Cl)s1 [X-Nip-Dap-D-Trp + Acid 14]
-0.045 | O=C(NC[C@@H]1NC(=O)[C@H]2CCCN(C2)C(=O)CCSSCCNC(=O)[C@@H](Cc2c[nH]c3ccccc23)NC1=O)c1ccc(Cl)cc1 [X-Nip-Dap-D-Trp + Acid 25]
-0.015 | O=C(/C=C/c1ccncc1)NC[C@@H]1NC(=O)[C@H]2CCCN(C2)C(=O)CCSSCCNC(=O)[C@@H](Cc2c[nH]c3ccccc23)NC1=O [X-Nip-Dap-D-Trp + Acid 106]
0.044 | O=C(NC[C@@H]1NC(=O)[C@H]2CCCN(C2)C(=O)CCSSCCNC(=O)[C@@H](Cc2c[nH]c3ccccc23)NC1=O)c1ccc2ccccc2c1 [X-Nip-Dap-D-Trp + Acid 107]
0.00133 | O=C(/C=C/c1ccc(OCc2ccccc2)cc1)NC[C@@H]1NC(=O)[C@H]2CCCN(C2)C(=O)CCSSCCNC(=O)[C@@H](Cc2c[nH]c3ccccc23)NC1=O [X-Nip-Dap-D-Trp + Acid 110]
0.021 | O=C(/C=C/c1ccc2ccccc2c1)NC[C@@H]1NC(=O)[C@H]2CCCN(C2)C(=O)CCSSCCNC(=O)[C@@H](Cc2c[nH]c3ccccc23)NC1=O [X-Nip-Dap-D-Trp + Acid 112]
-0.00533 | CC(Oc1cccc(Cl)c1)C(=O)NC[C@@H]1NC(=O)[C@H]2CCCN(C2)C(=O)CCSSCCNC(=O)[C@@H](Cc2c[nH]c3ccccc23)NC1=O (stereo partly drawn) [X-Nip-Dap-D-Trp + Acid 113]
0.00133 | O=C(CCS(=O)(=O)c1ccccc1)NC[C@@H]1NC(=O)[C@H]2CCCN(C2)C(=O)CCSSCCNC(=O)[C@@H](Cc2c[nH]c3ccccc23)NC1=O [X-Nip-Dap-D-Trp + Acid 114]
0.028 | Cn1cc(C[C@@H]2NC(=O)[C@H](CNC(=O)c3ccc(Cl)s3)NC(=O)[C@H]3CCCN(C3)C(=O)CCSSCCNC2=O)c2ccccc21 [X-Nip-Dap-Me-Trp + Acid 14]
0.076 | Cn1cc(C[C@@H]2NC(=O)[C@H](CNC(=O)c3ccc4ccccc4c3)NC(=O)[C@H]3CCCN(C3)C(=O)CCSSCCNC2=O)c2ccccc21 [X-Nip-Dap-Me-Trp + Acid 107]
0.075 | Cn1cc(C[C@@H]2NC(=O)[C@H](CNC(=O)/C=C/c3ccc(Cl)cc3)NC(=O)[C@H]3CCCN(C3)C(=O)CCSSCCNC2=O)c2ccccc21 [X-Nip-Dap-Me-Trp + Acid 108]
0.188 | Cn1cc(C[C@@H]2NC(=O)[C@H](CNC(=O)/C=C/c3ccc4ccccc4c3)NC(=O)[C@H]3CCCN(C3)C(=O)CCSSCCNC2=O)c2ccccc21 [X-Nip-Dap-Me-Trp + Acid 112]
-0.00533 | Cn1cc(C[C@@H]2NC(=O)[C@H](CNC(=O)CCS(=O)(=O)c3ccccc3)NC(=O)[C@H]3CCCN(C3)C(=O)CCSSCCNC2=O)c2ccccc21 [X-Nip-Dap-Me-Trp + Acid 114]
0.028 | Cn1cc(C[C@@H]2NC(=O)[C@H](CNC(=O)C3COc4ccccc4O3)NC(=O)[C@H]3CCCN(C3)C(=O)CCSSCCNC2=O)c2ccccc21 (stereo partly drawn) [X-Nip-Dap-Me-Trp + Acid 115]
0.00133 | CN1C(=O)[C@H](CNC(=O)c2ccc(Cl)cc2)NC(=O)[C@H]2CCCN(C2)C(=O)CCSSCCNC(=O)[C@@H]1Cc1c[nH]c2ccccc12 [X-Nip-Dap-NMe-Trp + Acid 25]
-0.021 | CN1C(=O)[C@H](CNC(=O)/C=C/c2ccncc2)NC(=O)[C@H]2CCCN(C2)C(=O)CCSSCCNC(=O)[C@@H]1Cc1c[nH]c2ccccc12 [X-Nip-Dap-NMe-Trp + Acid 106]
0.031 | CN1C(=O)[C@H](CNC(=O)c2ccc3ccccc3c2)NC(=O)[C@H]2CCCN(C2)C(=O)CCSSCCNC(=O)[C@@H]1Cc1c[nH]c2ccccc12 [X-Nip-Dap-NMe-Trp + Acid 107]
0.00133 | CN1C(=O)[C@H](CNC(=O)/C=C/c2ccc(Cl)cc2)NC(=O)[C@H]2CCCN(C2)C(=O)CCSSCCNC(=O)[C@@H]1Cc1c[nH]c2ccccc12 [X-Nip-Dap-NMe-Trp + Acid 108]
0.015 | CN1C(=O)[C@H](CNC(=O)/C=C/c2ccc(OCc3ccccc3)cc2)NC(=O)[C@H]2CCCN(C2)C(=O)CCSSCCNC(=O)[C@@H]1Cc1c[nH]c2ccccc12 [X-Nip-Dap-NMe-Trp + Acid 110]
-0.019 | CN1C(=O)[C@H](CNC(=O)c2cccc(Oc3ccccc3)c2)NC(=O)[C@H]2CCCN(C2)C(=O)CCSSCCNC(=O)[C@@H]1Cc1c[nH]c2ccccc12 [X-Nip-Dap-NMe-Trp + Acid 111]
0.015 | CN1C(=O)[C@H](CNC(=O)/C=C/c2ccc3ccccc3c2)NC(=O)[C@H]2CCCN(C2)C(=O)CCSSCCNC(=O)[C@@H]1Cc1c[nH]c2ccccc12 [X-Nip-Dap-NMe-Trp + Acid 112]
0.021 | CN1C(=O)[C@H](CNC(=O)CCS(=O)(=O)c2ccccc2)NC(=O)[C@H]2CCCN(C2)C(=O)CCSSCCNC(=O)[C@@H]1Cc1c[nH]c2ccccc12 [X-Nip-Dap-NMe-Trp + Acid 114]
-0.012 | CN1C(=O)[C@H](CNC(=O)C2COc3ccccc3O2)NC(=O)[C@H]2CCCN(C2)C(=O)CCSSCCNC(=O)[C@@H]1Cc1c[nH]c2ccccc12 (stereo partly drawn) [X-Nip-Dap-NMe-Trp + Acid 115]
0.208 | O=C(NC[C@@H]1NC(=O)[C@H]2CCCN(C2)C(=O)CCSSCCNC(=O)[C@H](Cc2c[nH]c3ccccc23)NC1=O)c1ccc(Cl)s1 [X-Nip-Dap-Trp + Acid 14]
0.194 | O=C(NC[C@@H]1NC(=O)[C@H]2CCCN(C2)C(=O)CCSSCCNC(=O)[C@H](Cc2c[nH]c3ccccc23)NC1=O)c1ccc(Cl)cc1 [X-Nip-Dap-Trp + Acid 25]
0.440 | O=C(NC[C@@H]1NC(=O)[C@H]2CCCN(C2)C(=O)CCSSCCNC(=O)[C@H](Cc2c[nH]c3ccccc23)NC1=O)c1ccc2ccccc2c1 [X-Nip-Dap-Trp + Acid 107]
0.421 | O=C(/C=C/c1ccc(Cl)cc1)NC[C@@H]1NC(=O)[C@H]2CCCN(C2)C(=O)CCSSCCNC(=O)[C@H](Cc2c[nH]c3ccccc23)NC1=O [X-Nip-Dap-Trp + Acid 108]

Same assay, conditions: Panel c, Library 4: best nine scaffolds and 15 additional carboxylic acids; displacement of fluorescent probe

fraction of fluorescent probe displaced | Compound
0.289 | O=C(/C=C/c1ccc(F)cc1)NC[C@@H]1NC(=O)[C@H]2CCCN(C2)C(=O)CCSSCCNC(=O)[C@H](Cc2c[nH]c3cc(Cl)ccc23)NC1=O [X-Nip-Dap-Cl-Trp + Acid 116]
0.207 | CCOc1ccc(/C=C/C(=O)NC[C@@H]2NC(=O)[C@H]3CCCN(C3)C(=O)CCSSCCNC(=O)[C@H](Cc3c[nH]c4cc(Cl)ccc34)NC2=O)cc1 [X-Nip-Dap-Cl-Trp + Acid 117]
0.134 | O=C(/C=C/c1ccc(Cl)c(Cl)c1)NC[C@@H]1NC(=O)[C@H]2CCCN(C2)C(=O)CCSSCCNC(=O)[C@H](Cc2c[nH]c3cc(Cl)ccc23)NC1=O [X-Nip-Dap-Cl-Trp + Acid 119]
0.207 | O=C(/C=C/c1cccc(Cl)c1)NC[C@@H]1NC(=O)[C@H]2CCCN(C2)C(=O)CCSSCCNC(=O)[C@H](Cc2c[nH]c3cc(Cl)ccc23)NC1=O [X-Nip-Dap-Cl-Trp + Acid 121]
0.166 | O=C(/C=C/c1cccc(C(F)(F)F)c1)NC[C@@H]1NC(=O)[C@H]2CCCN(C2)C(=O)CCSSCCNC(=O)[C@H](Cc2c[nH]c3cc(Cl)ccc23)NC1=O [X-Nip-Dap-Cl-Trp + Acid 122]
0.109 | CC(C)c1ccc(/C=C/C(=O)NC[C@@H]2NC(=O)[C@H]3CCCN(C3)C(=O)CCSSCCNC(=O)[C@H](Cc3c[nH]c4cc(Cl)ccc34)NC2=O)cc1 [X-Nip-Dap-Cl-Trp + Acid 127]
0.044 | O=C(NC[C@@H]1NC(=O)[C@H]2CCCN(C2)C(=O)CCSSCCNC(=O)[C@H](Cc2c[nH]c3cc(Cl)ccc23)NC1=O)c1cnc2ccccc2n1 [X-Nip-Dap-Cl-Trp + Acid 130]
0.052 | Cn1cc(C[C@@H]2NC(=O)[C@H](CNC(=O)/C=C/c3ccc(F)cc3)NC(=O)[C@H]3CCCN(C3)C(=O)CCSSCCNC2=O)c2ccccc21 [X-Nip-Dap-Me-Trp + Acid 116]
0.085 | Cn1cc(C[C@@H]2NC(=O)[C@H](CNC(=O)/C=C/c3ccc(Cl)c(Cl)c3)NC(=O)[C@H]3CCCN(C3)C(=O)CCSSCCNC2=O)c2ccccc21 [X-Nip-Dap-Me-Trp + Acid 119]
0.118 | Cn1cc(C[C@@H]2NC(=O)[C@H](CNC(=O)/C=C/c3cccc(Cl)c3)NC(=O)[C@H]3CCCN(C3)C(=O)CCSSCCNC2=O)c2ccccc21 [X-Nip-Dap-Me-Trp + Acid 121]
0.101 | Cn1cc(C[C@@H]2NC(=O)[C@H](CNC(=O)/C=C/c3cccc(C(F)(F)F)c3)NC(=O)[C@H]3CCCN(C3)C(=O)CCSSCCNC2=O)c2ccccc21 [X-Nip-Dap-Me-Trp + Acid 122]
0.028 | CC(C)c1ccc(/C=C/C(=O)NC[C@@H]2NC(=O)[C@H]3CCCN(C3)C(=O)CCSSCCNC(=O)[C@H](Cc3cn(C)c4ccccc34)NC2=O)cc1 [X-Nip-Dap-Me-Trp + Acid 127]
-0.00464 | Cn1cc(C[C@@H]2NC(=O)[C@H](CNC(=O)c3cnc4ccccc4n3)NC(=O)[C@H]3CCCN(C3)C(=O)CCSSCCNC2=O)c2ccccc21 [X-Nip-Dap-Me-Trp + Acid 130]
